# From PMC10823514, “Target Identification of a Class of Pyrazolone Protein Aggregation Inhibitor Therapeutics for Amyotrophic Lateral Sclerosis” (ACS Central Science, 2023)
# Like-named read-outs stand apart in the source and are kept apart here.
# Columns and labels:
# [1] = biological target: T1, 14-3-3-E (Homo sapiens, UniProt P62258); experiment: Fluorescent thermal shift assay (FTSA) with 14-3-3-E; type: binding; conditions: for Tm shift (ΔTm): SYPRO orange
# T1 construct: His-tag (TEV-cleavable) (cleaved yes); host or cells: E. coli (BL21)
# T1 sequence (P62258 1-255): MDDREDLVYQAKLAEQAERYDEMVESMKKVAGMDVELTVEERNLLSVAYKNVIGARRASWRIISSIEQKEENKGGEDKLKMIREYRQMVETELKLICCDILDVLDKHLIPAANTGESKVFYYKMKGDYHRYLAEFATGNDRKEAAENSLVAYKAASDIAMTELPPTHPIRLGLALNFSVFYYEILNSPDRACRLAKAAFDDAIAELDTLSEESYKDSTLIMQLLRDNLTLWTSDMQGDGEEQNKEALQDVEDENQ
# Protocol: (§1) His-tagged 14-3-3-E, B, and H plasmids were purchased from Addgene (plasmid ID# 31562, 39128, and 38814, respectively). E. coli (BL21) were transformed with extracted plasmids via heat shock and plated on selected media. Individual colonies were selected, grown, and sequenced to confirm gene presence. 1 L cultures were grown to an OD600 of 0.6 at 37 °C and 220 rpm. Protein expression was induced with 1 mM IPTG and expressed for 12 h at 100 rpm and room temperature (approximately 25 °C). Cells were spun down at 4000 rpm for 15 min at 4 °C and resuspended in lysis buffer containing 50 mM Tris (7.4), 150 mM NaCl, 0.08% DDM, 5 mM imidazole, and 5% glycerol (with an EDTA-free complete mini protease inhibitor cocktail). Cells were lysed via sonication, and the lysate was separated from cell debris by centrifugation at 15,000 rpm, 4 °C, for 45 min. The His-tagged protein was purified using QIAGEN Ni-NTA superflow columns, and the His-tag was removed with TEV protease. His-tag-removed proteins were further purified by size exclusion chromatography. His tag removal and size exclusion chromatography purification were done at the Northwestern University Protein Production core. 14-3-3-Q and 14-3-3-G proteins were purchased from Abchem (catalog numbers ab85270 and ab53869, respectively).
# All of the FTSA experiments were conducted in HEPES buffer (60 mM HEPES, 150 mM NaCl, pH 7.4). A DMSO balanced 8-point dilution series of the compound in HEPES buffer was prepared in a 96-well assay plate (200, 100, 50, 25, 12.5, 6.25, 3.125, and 0 μM). Then, a 5 μL volume of the dilution series was transferred to a 384-well PCR plate using a multichannel pipet, and the plate was centrifuged at 1000 rpm for 2 min (the plate was covered with an adhesive aluminum seal). The protein sample was premixed at a concentration of 0.04 μg/μL with a 5X concentration of SYPRO orange in HEPES buffer, and a 5 μL aliquot was added to the compound wells. The plate was covered with an optical adhesive seal and was shaken for 2 min, followed by centrifugation at 1000 rpm for 2 min. The thermal scan was performed from 20 to 90 °C with a temperature gradient of 0.5 °C/min. The fluorescence was measured on a Bio-Rad CFX384 real-time PCR instrument.
# [2] = biological target: T2, 14-3-3-B (Homo sapiens, UniProt P31946); experiment: Fluorescent thermal shift assay (FTSA) with 14-3-3-B; type: binding; conditions: 0 and 100 μM P2
# T2 construct: His-tag (TEV-cleavable) (cleaved yes); host or cells: E. coli (BL21)
# T2 sequence (P31946 1-246): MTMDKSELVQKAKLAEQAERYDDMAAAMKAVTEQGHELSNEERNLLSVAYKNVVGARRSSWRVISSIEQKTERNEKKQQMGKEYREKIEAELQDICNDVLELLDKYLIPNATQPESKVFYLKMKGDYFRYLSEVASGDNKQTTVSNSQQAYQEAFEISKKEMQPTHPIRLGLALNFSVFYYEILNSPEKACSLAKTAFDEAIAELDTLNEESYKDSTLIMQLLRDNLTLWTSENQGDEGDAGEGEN
# Protocol: as §1, with “14-3-3-Q and 14-3-3-G proteins were purchased from Abchem (catalog numbers ab85270 and ab53869, respectively).” left out
# All of the FTSA experiments were conducted in HEPES buffer (60 mM HEPES, 150 mM NaCl, pH 7.4). […] The fluorescence was measured on a Bio-Rad CFX384 real-time PCR instrument.
# [3] = system: PC12 SOD1^G93A cells; conditions: neuroprotection against MG-132-induced SOD1^G93A toxicity in PC12 cells; leads of the authors' earlier work; read-out: EC50 (NP = neuroprotection); cited from earlier work
# [4] = system: transgenic mice; conditions: earlier work of the authors; cited from earlier work
# [5] = system: PC12 SOD1^G93A cells; experiment: Neuroprotection against MG-132-induced toxicity in PC12 cells expressing mutant SOD1^G93A (calcein-AM viability); type: cell-based; conditions: Rattus norvegicus, PC-12, read-out: EC50 to ameliorate MG132-induced protein aggregation and cellular toxicity
# Protocol: With this information in hand, we implemented a phenotypic drug discovery approach to identify a novel therapeutic for treating ALS. The study employed a rat PC12 cell-based assay that expresses SOD1^G93A mutation for screening a chemical library of more than 50,000 compounds to identify promising hits (Figure 1 compounds 3 and 4). The hits are based on attenuating proteasome inhibitor MG-132-induced SOD1^G93A cellular toxicity.
# Viability EC50 values were determined according to the previously reported assay procedure.[43] Briefly, PC12 cells were seeded at 15,000 cells/well in 96-well plates, and the medium was changed to remove the doxycycline 4 days prior to compound addition. Compounds were assayed in 12-point dose–response experiments to determine the potency and efficacy. The highest compound concentration tested was 32 μM, which was decreased by half with each subsequent dose. After a 24 h incubation with the analytes, MG-132 (400 nM) was added and the cells were incubated at 37 °C for 24 h. The cells were washed twice with PBS. Calcein-AM was added at a final concentration of 1 μM for 20 min at room temperature, and the fluorescence intensity was read in a POLARstar fluorescence plate reader (BMG). EC50 values were determined by standardizing fluorescent signal to DMSO treated controls. […] The presented data represent the mean average of duplicate experiments.
Compound,Tm shift (ΔTm) [1] [°C],"Kd ([1]; fit of ΔTm versus concentration, n = 2, read-out: Kd^app) [nM]",binding (Tm shift) [2],EC50 [3] [nM],increase of the median survival rate [4] [%],EC50 [5] [nM]
O=c1cc(COc2cc(Cl)cc(Cl)c2)[nH][nH]1 [P2],3.2,2850,no binding,67,13,
"C#CCN(Cc1cc(=O)[nH][nH]1)Cc1c(F)c(F)c(N=[N+]=[N-])c(F)c1F [PRAPP, 5-(((4-Azido-2,3,5,6-tetrafluorobenzyl)(prop-2-yn-1-yl)amino)methyl)-1,2-dihydro-3H-pyrazol-3-one]",2.5,,,,,190
